Ends that are not written are not given here.
Key:
S68 antibody = assay: Peptide blocking of S68 antibody binding to serum protein (specificity of S68 antibody); design: species or system rabbit; settings: peptide 0, 0.1, 1, and 10 µg/mL; sera of sepsis patients and normal donors
Description: For confirming the specificity of S68 antibody prepared in Example 1, the inventors studied whether blocking occurs by a peptide by the same assay as that of Example 3-(3). That is, S68 peptide (amino acid sequence at positions 53 to 68), synthetic polypeptide prepared by the same way as that of Example 1 (amino acid sequence at positions 53 to 58, amino acid sequence at positions 57 to 62, and amino acid sequence at positions 59 to 64), or negative control peptide (Cys Glu Gly Asn Gly Asn Asn Phe Glu Ser Arg Glu Ala Cys) was diluted to 0, 0.1, 1, and 10 µg/mL and 25 µL of each diluted solution was added to 25 µL of each of 50-fold diluted solutions of the sera obtained from patients suffering from sepsis and the sera of normal donors to initiate a competitive reaction by mixing with S68 antibody. After that, the levels of the soluble protein bound to S68 antibody without inhibition by any peptide were determined.
The above result confirmed that a protein being detected in blood by S68 antibody is specifically recognized by S68 antibody. In addition, the result also confirmed that the sequence recognized by the antibody requires a length of at least 7 amino acids because the inhibition can not be attained by three kinds of synthetic peptides (the number of amino acids: 6) corresponding to the partial peptides of S68 peptide.

[1] = Measurement of chemically synthesized peptide with kit of Example 7-(3); assay type: binding
Description: A peptide synthesizer ABI433A (Applied) was used and amino acid columns were then aligned according to the amino acid sequences to carry out automatic synthesis. The synthesized peptide was removed from a resin by the conventional method and then recovered by ether precipitation. The resultant peptide was re-dissolved in distilled water and then freeze-dried. After the dissolution, the crude peptide thus obtained was eluted through a linear gradient of 5-70% acetonitrile by the use of C18 reversed phase HPLC (CAPCELL-PAK, Shiseido Co., Ltd.). Consequently, a fraction containing a peptide of interest was collected. The collected fraction was freeze-dried and provided as a purified peptide. The purified peptide was dissolved in the diluent described in Example 7-(12) and then the solution was subjected to the measurement with the kit described in Example 7-(3).

Molecule	inhibition of the binding between S68 antibody and the soluble protein in serum (S68 antibody)	reaction with the kit described in Example 7-(3) [1]
CEGNGNNFESREAC (cysteine pairing not given here) [negative control peptide, reference compound]	not inhibited	–
S68 peptide: peptide having the sequence of SEQ ID NO: 2, positions 53 to 68 of SEQ ID NO: 3 (RVDADADPRQYADTVK)	inhibited	–
sCD14(1-70): chemically synthesized soluble polypeptide having amino acids at positions 1 to 70 on the N-terminal of human CD14 (peptide) peptide: TTPEPCELDDEDFRCVCNFSEPQPDWSEAFQCVSAVEVEIHAGGLNLEPFLKRVDADADPRQYADTVKAL	–	strongly reacted
